What is called IC50 is the point on the concentration scale where inhibition reaches its midpoint. The pIC50 is −log10 of the IC50, conventionally taken in molar units.

pIC50: −log10 of the molar value. Like-named read-outs stand apart in the source and are kept apart here.

Data set [1] deals with T29 cells.
In data set [2] the test system is T29Kt1 cells.
The test system of data set [3] is T29Ht1 cells.
In data set [4] the test system is H460 cells. As to conditions: up to 100 μM.
For data set [5], the system named is PKCiota. Nature of the data set: Immunohistochemical staining, subcellular localization of PKCiota. Type of data set: cell-based, human. Particulars: 12 h; comparators at doses giving similar cell killing. On the procedure:
Effects on subcellular localization of PKCiota. […] To further investigate molecular mechanisms of Oncrasin action the inventors studied the subcellular localization of several molecules involved in Ras-signaling pathway because the functions of Ras and other proteins are directly related to their subcellular localizations. For this purpose, T29Kt1 or H460 cells were seeded on cover glass slides and treated with DMSO or Oncrasin-1 for 12 h. Cells were then fixed with paraformaldehyde, permeabilized with Triton X-100 and stained with various antibodies for immunohistochemical examination. […] Nevertheless, substantial subcellular localization change was detected for PKCiota after Oncrasin-1 treatment (FIG. 6). In both H460 and T29Kt1 cells, both PKCiota and PKCzeta were diffusely distributed in cells with high concentration on cell membrane in nucleus, consisting with previous reports that aPKC contains both nuclear localization signal (NLS) and nuclear export signal (NES), and can shuttle between cytoplasm and nucleus, which was regulated by intramolecular conformational changes, phosphorylation or by treatment with growth factors (Perander et al., 2001; White et al., 2002; Neri et al., 1999). […] Such aggregation of PKCiota was not observed in Oncrasin-resistant T29 and H1299 cells. The inventors then tested whether PKCiota aggregation in the nucleus can be induced by other chemotherapeutic agents such as 5-fluorouracil (5-FU) and paclitaxol.

In data set [6] the test system is H226B cells. Nature of the data set: Cell viability, H226B lung cancer cells. Type of data set: cell-based, human. As to conditions: Homo sapiens.
The subject of data set [7] is A549 cells. Description: Cell viability, A549 lung cancer cells. Particulars: Homo sapiens, A549, read-out: IC50 (−LogM), A549, Lung (converted). Type of data set: cell-based, human.
Data set [8] relates to A549CK8. Description: Cell viability, A549CK8 lung cancer cells. The class given is cell-based, human. As to conditions: Homo sapiens, read-out: IC50 (−LogM) (converted).
For data set [9], the system named is Hct116. Description: Cell viability, Hct116 colon cancer cells. The class given is cell-based, human. Particulars: Homo sapiens, HCT-116, read-out: IC50 (−LogM), Hct116, Colon (converted).
The subject of data set [10] is CT116P53. Description: Cell viability, CT116P53 colon cancer cells. Type of data set: cell-based, human. Particulars: Homo sapiens, read-out: IC50 (−LogM) (converted).
Data set [11] concerns HKE3. Description: Cell viability, HKE3 colon cancer cells. Type of data set: cell-based, human. Particulars: Homo sapiens.
The test system of data set [12] is H322 cells. Description: Cell viability, H322 lung cancer cells. The class given is cell-based, human. Particulars: Homo sapiens, NCI-H322, read-out: IC50 (−LogM) (converted).
In data set [13] the test system is H1299 cells. Description: Cell viability, H1299 lung cancer cells. The class given is cell-based, human. As to conditions: Homo sapiens, NCI-H1299, read-out: IC50 (−LogM), h1299, Lung (converted).
Data set [14] deals with AsPC-1. Nature of the data set: Cell viability, AsPC-1 pancreatic cancer cells. Type of data set: cell-based, human. Particulars: Homo sapiens, ASPC1, read-out: IC50 (−LogM), ASPC1, Pancrease (converted).
The subject of data set [15] is DLD1. Nature of the data set: Cell viability, DLD1 colon cancer cells. The class given is cell-based, human. As to conditions: Homo sapiens, DLD-1, read-out: IC50 (−LogM) (converted).
Data set [16] relates to Heb46. Nature of the data set: Cell viability, Heb46 kidney cells. Type of data set: cell-based.
The subject of data set [17] is Heb44. Nature of the data set: Cell viability, Heb44 kidney cells. The class given is cell-based.
In data set [18] the test system is Capanc-1. Nature of the data set: Cell viability, Capanc-1 pancreatic cancer cells. Type of data set: cell-based, human. As to conditions: Homo sapiens, Pancreatic cancer cell, read-out: IC50 (−LogM), capanc1, Pancrease (converted).
Data set [19] concerns miapac. Nature of the data set: Cell viability, miapac pancreatic cancer cells. Type of data set: cell-based, human. As to conditions: Homo sapiens, Pancreatic cancer cell, read-out: IC50 (−LogM) (converted).
For data set [20], the system named is H2122. Nature of the data set: Cell viability, H2122 lung cancer cells. Particulars: Homo sapiens, NCI-H2122, read-out: IC50 (−LogM) (converted). Type of data set: cell-based, human.
Data set [21] concerns H2009. Description: Cell viability, H2009 lung cancer cells. Type of data set: cell-based, human. As to conditions: Homo sapiens, NCI-H2009, read-out: IC50 (−LogM) (converted).
Data set [22] concerns H23. Description: Cell viability, H23 lung cancer cells. Type of data set: cell-based, human. As to conditions: Homo sapiens, NCI-H23, read-out: IC50 (−LogM) (converted).
The test system of data set [23] is H1933. Nature of the data set: Cell viability, H1933 lung cancer cells. Type of data set: cell-based, human. Particulars: Homo sapiens, read-out: IC50 (−LogM) (converted).
Data set [24] concerns H1395. Description: Cell viability, H1395 lung cancer cells. The class given is cell-based, human. As to conditions: Homo sapiens, NCI-H1395, read-out: IC50 (−LogM) (converted).
Data set [25] deals with H2087. Description: Cell viability, H2087 lung cancer cells. The class given is cell-based, human. Particulars: Homo sapiens, NCI-H2087, read-out: IC50 (−LogM) (converted).
Data set [26] relates to Ovcar3. Description: Cell viability, Ovcar3 ovary cancer cells. Type of data set: cell-based. As to conditions: Homo sapiens, OVCAR-3.
Data set [27] relates to Ovcar443. Description: Cell viability, Ovcar443 ovary cancer cells. Type of data set: cell-based.
The subject of data set [28] is Hey. Description: Cell viability, Hey ovary cancer cells. The class given is cell-based.
Data set [29] has as its system Ovca429. Description: Cell viability, Ovca429 ovary cancer cells. The class given is cell-based.
Data set [30] concerns SKOV3. Description: Cell viability, SKOV3 ovary cancer cells. Type of data set: cell-based. Particulars: Homo sapiens, SK-OV-3.
Data set [31] concerns T29 cells. Description: cells. As to conditions: Homo sapiens, T29, read-out: IC50 in T29 cells.
In data set [32] the test system is T29Kt1 cells. Description: cells. As to conditions: Homo sapiens, T29Kt1, read-out: IC50 in T29k cells, Table 1.
In data set [33] the test system is H460 cells. Nature of the data set: cells. Particulars: Homo sapiens.
In data set [34] the test system is wild-type MEF. Particulars: Winter-Vann et al., 2005; cited from earlier work.
Setting [35] is: at any of the doses tested (dose response).
[36] abbreviates: up to 100 μM, the highest concentration tested.

Turning to `OCc1c[nH]c2ccccc12` [indole-3-carbinol, reference compound], in [1] (setting [35]), the “toxicity to T29 cells” value is reported as “did not induce any cytotoxicity”. Besides, the “cytotoxicity in T29 cells” value in data set [1] (setting [36]) is given as “did not have any cytotoxic effects”. Moreover, the “toxicity to T29K cells” value in data set [2] (same dose range as tested for the leader) is “did not induce any cytotoxicity”. In data set [2] (up to 100 μM), the “cytotoxicity in T29Kt1 cells” value is given as “did not have any cytotoxic effects”. The “toxicity to T29Ht1 (T29H) cells” value in data set [3] (setting [35]) is listed as “did not induce any cytotoxicity”. In data set [3] (setting [36]), the “cytotoxicity in T29Ht1 cells” value is on record as “did not have any cytotoxic effects”. Further, in data set [4], the “cytotoxicity in H460 cells” value is “did not have any cytotoxic effects”.

`O=c1cc(N2CCOCC2)oc2c(-c3ccccc3)cccc12` [LY294003, reference compound]: the “PKCiota aggregation in the nucleus, T29Kt1 cells” value (from here on “PKCiota aggregation”) in data set [5] is recorded as “did not induce PKCiota aggregation”.

Regarding `O=Cc1cn(Cc2cccc([N+](=O)[O-])c2)c2ccccc12` [Oncrasin K68, 1-(3-nitrobenzyl)-1H-indole-3-carbaldehyde], the 50% inhibitory concentration (IC50) was 0.00251 µM in data set [6] (read-out: IC50 (−LogM), H226B, Lung, first H226B line (converted)); 0.0631 µM in data set [6] (read-out: IC50 (−LogM), H226B, Lung, second H226B line (converted)); 5.01 µM in data set [7]; 3.16 µM in data set [8]; 0.158 µM in data set [9]; under 31.6 µM in data set [10]. The 50% inhibitory concentration (IC50) is 0.1 µM in data set [11] (read-out: IC50 (−LogM), HKE3, Colon, first HKE3 line (converted)); 0.398 µM in data set [11] (read-out: IC50 (−LogM), HKE3, Colon, second HKE3 line (converted)); 31.6 µM in data set [12]; 10 µM in [13]; 2 µM in data set [14]; under 31.6 µM in [15]. Further, the concentration for half-maximal inhibition (IC50) in data set [18] was 31.6 µM; in data set [19], under 31.6 µM; in data set [20] it was 1 µM; in data set [21], 31.6 µM; in data set [22], 31.6 µM; in data set [23] it was 25.1 µM. The concentration for half-maximal inhibition (IC50) is under 31.6 µM in data set [24]; 31.6 µM in data set [25]; 0.0398 µM in data set [33] (NCI-H460, read-out: IC50 (−LogM), H460, Lung (converted)). Besides, the pIC50 was 6.70 in data set [16]; 8.00 in [17]; 6.80 in data set [26]; 5.00 in [27]; over 4.50 in data set [28]; 4.50 in data set [29]. Besides, the pIC50 in data set [30] is 6.00; in data set [31], 4.50; in data set [32], 6.30; in [33] (NCI-H460, read-out: IC50 in H460 cells, Table 1), 7.40.

Regarding `CC(=O)O[C@H]1C(=O)[C@@]2(C)[C@H]([C@H](OC(=O)c3ccccc3)[C@]3(O)C[C@H](OC(=O)[C@H](O)[C@@H](NC(=O)c4ccccc4)c4ccccc4)C(C)=C1C3(C)C)[C@]1(OC(C)=O)CO[C@@H]1C[C@@H]2O` [taxol, paclitaxol, reference compound], the “PKCiota aggregation” value in [5] was “did not induce PKCiota aggregation”.

Regarding `CCCCCCCCn1cc(CC(N)=O)c2cc(-c3cccc(C)c3)ccc21` [Cysmethynil, 2-[5-(3-methylphenyl)-1-octyl-1H-indol-3-yl]acetamide], the “growth inhibition in wild-type MEF” value in data set [34] is listed as “induce Icmt-dependent growth inhibition”.

`O=c1[nH]cc(F)c(=O)[nH]1` [Oncrasin 5-FLY, 5-fluorouracil, reference compound]: the “PKCiota aggregation” value in data set [5] is “did not induce PKCiota aggregation”.

Values taken from patent US8883841B2, “Oncogenic ras-specific cytotoxic compound and methods of use thereof” (The Board of Regents of the University of Texas System, priority 2005, dated 2014).
